Source: PubChem BioAssay (NCI)
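Tested at 5 concentrations; 48 h exposure; 96-well plates; endpoints linearly interpolated, else capped at highest concentration. GI50: concentration for 50% inhibition of growth. TGI: total growth inhibition.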

How the values were obtained:
Assay in all cases: NCI tumour cell line growth inhibition, 48 h
[1] = system: SN12C renal
[2] = system: HS 578T breast
[3] = system: HT29 colon
[4] = system: OVCAR-5 ovarian
[5] = system: DU-145 prostate
[6] = system: CAKI-1 renal
[7] = system: UO-31 renal
[8] = system: RXF 393 renal
[9] = system: 786-0 renal
[10] = system: SF-268 CNS
[11] = system: KM12 colon
[12] = system: CCRF-CEM leukemia
[13] = system: U251 CNS
[14] = system: NCI-H460 lung
[15] = system: OVCAR-3 ovarian
[16] = system: SK-MEL-5 melanoma
[17] = system: IGROV1 ovarian
[18] = system: PC-3 prostate
[19] = system: A498 renal
[20] = system: TK-10 renal
[21] = system: K-562 leukemia
[22] = system: NCI-H522 lung
[23] = system: A549 NSCLC
[24] = system: EKVX NSCLC
[25] = system: RPMI-8226 leukemia
[26] = system: NCI/ADR-RES ovarian
[27] = system: SNB-19 CNS
[28] = system: SNB-75 CNS
[29] = system: MALME-3M melanoma
[30] = system: HL-60(TB) leukemia
[31] = system: HCC-2998 colon
[32] = system: SF-539 CNS
[33] = system: COLO 205 colon
[34] = system: ACHN renal
[35] = system: HCT-116 colon
[36] = system: OVCAR-4 ovarian
[37] = system: HOP-62 NSCLC
[38] = system: SK-MEL-28 melanoma
[39] = system: SR leukemia
[40] = system: HOP-92 NSCLC
[41] = system: MDA-MB-231 breast
[42] = system: SW-620 colon
[43] = system: UACC-257 melanoma
[44] = system: MOLT-4 leukemia
[45] = system: HCT-15 colon
[46] = system: NCI-H226 lung
[47] = system: LOX IMVI melanoma
[48] = system: MDA-MB-435
[49] = system: MCF7 breast
[50] = system: SK-MEL-2 melanoma
[51] = system: M14 melanoma
[52] = system: UACC-62 melanoma
[53] = system: T-47D breast
[54] = system: NCI-H23 lung
[55] = system: SF-295 CNS
[56] = system: OVCAR-8 ovarian

In the case of `COc1cc(Cl)c(C)cc1NC(=O)c1cc2ccccc2cc1O`, the GI50 [1] is reported as 1680 nM, the TGI [1] is reported as 10.1 µM and the GI50 [2] is reported as 2100 nM. For the same compound, the TGI [2] was 7.35 µM, the GI50 [3] was 2880 nM and the TGI [3] was 8.34 µM. For the same compound, the GI50 [4] was 3.47 µM, the TGI [4] was 14.1 µM and the GI50 [5] was 3.4 µM. The TGI [5] was 14.4 µM, the GI50 [6] was 1650 nM and the TGI [6] was 10.6 µM. The GI50 [7] was 1290 nM, the TGI [7] was 10.6 µM and the GI50 [8] was 2840 nM. The TGI [8] was 7.01 µM, the GI50 [9] was 3.13 µM and the TGI [9] was 8.53 µM. The GI50 [10] was 3.24 µM, the TGI [10] was 14.3 µM and the GI50 [11] was 2600 nM. It also gave a TGI [11] of 8.15 µM, a GI50 [12] of 3.11 µM and a TGI [12] of 19.6 µM. The GI50 [13] was 2200 nM, the TGI [13] was 10.5 µM and the GI50 [14] was 2740 nM. For the same compound, the TGI [14] was 9.63 µM, the GI50 [15] was 1860 nM and the TGI [15] was 7.09 µM. It also gave a GI50 [16] of 1720 nM, a TGI [16] of 3.93 µM and a GI50 [17] of 3.04 µM. It also gave a TGI [17] of 34.4 µM, a GI50 [18] of 2330 nM and a TGI [18] of 10.7 µM. It also gave a GI50 [19] of 1650 nM, a TGI [19] of 4.77 µM and a GI50 [20] of 2920 nM. It also gave a TGI [20] of 7.26 µM, a GI50 [21] of 2820 nM and a TGI [21] of 23 µM. The GI50 [22] was 1460 nM, the TGI [22] was 4.47 µM and the GI50 [23] was 2960 nM. It also gave a TGI [23] of 10.6 µM, a GI50 [24] of 1650 nM and a TGI [24] of 9.03 µM. It also gave a GI50 [25] of 1460 nM, a TGI [25] of 6.17 µM and a GI50 [26] of 2550 nM. The TGI [26] was 9.04 µM, the GI50 [27] was 4.34 µM and the TGI [27] was 20.7 µM. For the same compound, the GI50 [28] was 2400 nM, the TGI [28] was 9.37 µM and the GI50 [29] was 1690 nM. It also gave a TGI [29] of 10 µM, a GI50 [30] of 1890 nM and a TGI [30] of 6.92 µM. For the same compound, the GI50 [31] was 3.31 µM, the TGI [31] was 12.8 µM and the GI50 [32] was 2810 nM. For the same compound, the TGI [32] was 10.4 µM, the GI50 [33] was 2370 nM and the TGI [33] was 8.41 µM. It also gave a GI50 [34] of 2670 nM, a TGI [34] of 11.4 µM and a GI50 [35] of 1950 nM. For the same compound, the TGI [35] was 7.1 µM, the GI50 [36] was 3.28 µM and the TGI [36] was 18.5 µM. For the same compound, the GI50 [37] was 2370 nM, the TGI [37] was 10.3 µM and the GI50 [38] was 3.77 µM. For the same compound, the TGI [38] was 22.8 µM, the GI50 [39] was 2790 nM and the TGI [39] was 11.9 µM. It also gave a GI50 [40] of 398 nM, a TGI [40] of 3.57 µM and a GI50 [41] of 1190 nM. For the same compound, the TGI [41] was 2720 nM, the GI50 [42] was 3.27 µM and the TGI [42] was 13.6 µM. It also gave a GI50 [43] of 1940 nM, a TGI [43] of 5.93 µM and a GI50 [44] of 2850 nM. It also gave a TGI [44] of 14 µM, a GI50 [45] of 2500 nM and a TGI [45] of 13.4 µM. For the same compound, the GI50 [46] was 1940 nM, the TGI [46] was 6.28 µM and the GI50 [47] was 2490 nM. For the same compound, the TGI [47] was 10.8 µM, the GI50 [48] was 2600 nM and the TGI [48] was 8.92 µM. It also gave a GI50 [49] of 2380 nM, a TGI [49] of 13.2 µM and a GI50 [50] of 1700 nM. For the same compound, the TGI [50] was 4.01 µM, the GI50 [51] was 2850 nM and the TGI [51] was 9.53 µM. For the same compound, the GI50 [52] was 1490 nM, the TGI [52] was 8.14 µM and the GI50 [53] was 2070 nM. It also gave a TGI [53] of 11.7 µM, a GI50 [54] of 1970 nM and a TGI [54] of 8.19 µM. The GI50 [55] was 2430 nM, the TGI [55] was 7.91 µM and the GI50 [56] was 2700 nM. It also gave a TGI [56] of 10.4 µM.
